Among the data in patent publication US12384776B2, “Compounds and uses thereof” (Foghorn Therapeutics Inc., priority 2019, dated 2025) are IC50 values, retold here.

Molecules are shown by their SMILES. Bounds are passed on as bounds.

What is called IC50 is the midpoint of a concentration-inhibition curve. Lower therefore signals greater potency.

Chain of Nanoluciferase-BRD9 fusion protein (3×FLAG-NLuc-BRD9) in SYO-1 cells (Q9H8M2 whole entry, the tested form may be a part): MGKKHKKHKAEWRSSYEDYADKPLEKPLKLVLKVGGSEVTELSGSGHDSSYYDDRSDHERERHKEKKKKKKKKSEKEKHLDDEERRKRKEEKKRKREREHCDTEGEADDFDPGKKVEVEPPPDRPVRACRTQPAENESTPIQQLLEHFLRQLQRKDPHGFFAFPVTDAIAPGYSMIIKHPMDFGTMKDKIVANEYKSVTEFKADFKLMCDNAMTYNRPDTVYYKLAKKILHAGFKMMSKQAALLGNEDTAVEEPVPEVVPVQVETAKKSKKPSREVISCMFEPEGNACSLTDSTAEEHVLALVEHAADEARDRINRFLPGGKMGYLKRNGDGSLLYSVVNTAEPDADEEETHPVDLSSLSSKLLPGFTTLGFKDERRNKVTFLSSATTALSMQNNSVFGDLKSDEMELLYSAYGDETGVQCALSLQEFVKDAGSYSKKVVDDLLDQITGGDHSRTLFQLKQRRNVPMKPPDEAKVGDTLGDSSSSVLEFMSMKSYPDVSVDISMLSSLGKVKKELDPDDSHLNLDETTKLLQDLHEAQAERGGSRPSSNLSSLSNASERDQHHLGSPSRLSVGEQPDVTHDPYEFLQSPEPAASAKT

One test deals with Nanoluciferase-BRD9 fusion protein (3×FLAG-NLuc-BRD9) in SYO-1 cells (Homo sapiens (Human), UniProt Q9H8M2). Put plainly: SYO1 BRD9 NanoLuc degradation assay. It counts as cell-based. The settings on record: SYO-1 cells expressing 3×FLAG-NLuc-BRD9, 6 hours incubation, top dose 1 μM. The essentials:
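Stable SYO-1 line expressing 3×FLAG-NLuc-BRD9, treated with 10-point 3-fold dilutions (top 1 μM final) for 6 hours. Nanoluciferase luminescence read with Nano-Glo reagent. % inhibition relative to DMSO (high control) and 1 μM reference BRD9 degrader (low control).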
Turning to `COc1cc(-c2cn(C)c(=O)c3c2CCN(C(=O)NC2CCC4CN(c5ccc6c(c5)C(=O)N(C5CCC(=O)NC5=O)C6=O)CC42)C3)cc(OC)c1CN(C)C` (stereo not drawn) [Compound D119], the IC50 was less than 10 nM.

For `CNC(=O)N1CCc2c(-c3cc(OC)c(CN4CC(S(=O)(=O)NCCN5CCN(c6ccc7c(c6)C(=O)N(C6CCC(=O)NC6=O)C7=O)CC5)C4)c(OC)c3)cn(C)c(=O)c2C1` (stereo not drawn) [Compound D287], the 50% inhibitory concentration (IC50) is 100 to 1000 nM.

`CNC(=O)N1CCc2c(-c3cc(OC)c(CN4CC(S(=O)(=O)NCCOc5cccc6c5C(=O)N(C5CCC(=O)NC5=O)C6=O)C4)c(OC)c3)cn(C)c(=O)c2C1` (stereo not drawn) [Compound D282]: the IC50 is 100 to 1000 nM.

For `COc1cc(-c2cn(C)c(=O)c3c2CCN(C(=O)NCCN2CCC(OC4CCN(c5ccc6c(c5)C(=O)N(C5CCC(=O)NC5=O)C6=O)CC4)CC2)C3)cc(OC)c1CN(C)C` (stereo not drawn) [Compound D186], the IC50 lay in the range of 10 to 100 nM.

Take `CNC(=O)N1CCc2c(c(-c3cc(OC)c(CN(C)CC(=O)NCCOCCOc4cccc5c4C(=O)N(C4CCC(=O)NC4=O)C5=O)c(OC)c3)cn(C)c2=O)C1` (stereo not drawn) [Compound D297]: the IC50 is not below 1000 nM.

In turn, `CNC(=O)N1CCc2c(-c3cc(OC)c(CN4CCC(CCN(C)C5CN(c6ccc7c(c6)C(=O)N(C6CCC(=O)NC6=O)C7=O)C5)CC4)c(OC)c3)cn(C)c(=O)c2C1` (stereo not drawn) [Compound D171] displayed an IC50 of less than 10 nM.

`CNC(=O)N1CCc2c(-c3cc(OC)c(CN4CC5(CC(N6CCN(c7ccc8c(c7)C(=O)N(C7CCC(=O)NC7=O)C8=O)CC6)C5)C4)c(OC)c3)cn(C)c(=O)c2C1` (stereo not drawn) [Compound D146] came in with a 50% inhibitory concentration (IC50) of less than 10 nM.

Take `COc1cc(-c2cn(C)c(=O)c3c2CCN(C(=O)NCC2CC4(CCN(CCCOc5ccc6c(c5)C(=O)N(C5CCC(=O)NC5=O)C6=O)CC4)C2)C3)cc(OC)c1CN(C)C` (stereo not drawn) [Compound D235]: the IC50 lay in the range of 100 to 1000 nM.

`CNC(=O)N1CCc2c(-c3cc(OC)c(CN4CCC(CCN5CCN(c6ccc7c(c6F)C(=O)N(C6CCC(=O)NC6=O)C7=O)CC5)CC4)c(OC)c3)cn(C)c(=O)c2C1` (stereo not drawn) [Compound D87] gave a half-maximal inhibitory concentration (IC50) of less than 10 nM.

`COc1cc(-c2cn(C)c(=O)c3c2CCN(C(=O)NC2CC4(C2)CN(CCCCN2CCN(c5ccc6c(c5)C(=O)N(C5CCC(=O)NC5=O)C6=O)CC2)C4)C3)cc(OC)c1CN(C)C` (stereo not drawn) [Compound D230]: the IC50 was not below 1000 nM.

Compound `COc1cc(-c2cn(C)c(=O)c3c2CCN(C(=O)NCC2CC24CCN(CCCOc2ccc5c(c2)C(=O)N(C2CCC(=O)NC2=O)C5=O)CC4)C3)cc(OC)c1CN(C)C` (stereo not drawn) [Compound D242] gave an IC50 of 100 to 1000 nM.

Compound `CNC(=O)N1CCc2c(-c3cc(OC)c(CN4CCC(CCN5CCN(c6cc7c(cc6F)C(=O)N(C6CCC(=O)NC6=O)C7=O)CC5)CC4)c(OC)c3)cn(C)c(=O)c2C1` (stereo not drawn) [Compound D88] yielded an IC50 of less than 10 nM.

`CNC(=O)N1CCc2c(-c3cc(Cl)c(CN4CCN(CCC5CCN(c6ccc7c(c6)CN(C6CCC(=O)NC6=O)C7=O)CC5)CC4)c(OC)c3)cn(C)c(=O)c2C1` (stereo not drawn) [Compound D55]: the IC50 was less than 10 nM.

For the compound `CNC(=O)N1CCc2c(-c3cc(OC)c(CN4CC(N(C)c5ccc6c(c5)C(=O)N(C5CCC(=O)NC5=O)C6)C4)c(OC)c3)cn(C)c(=O)c2C1` (stereo not drawn) [Compound D53], the IC50 was 10 to 100 nM.

Turning to `CNC(=O)N1CCc2c(-c3cc(OC)c(CN4CCN(CCC5CCN(c6ccc7c(c6)C(=O)N(C6CCC(=O)NC6=O)C7=O)CC5)CC4(C)C)c(OC)c3)cn(C)c(=O)c2C1` (stereo not drawn) [Compound D102], the IC50 was less than 10 nM.

`CNC(=O)N1CCc2c(-c3cc(OC)c(CN4CCC5(CC4)CC(N4Cc6cc7c(cc6C4)C(=O)N(C4CCC(=O)NC4=O)C7=O)C5)c(OC)c3)cn(C)c(=O)c2C1` (stereo not drawn) [Compound D182]: the IC50 is less than 10 nM.

Regarding `COc1cc(-c2cn(C)c(=O)c3c2CCN(C(=O)NCCCCCCCCNc2cccc4nc(C)n(C5CCC(=O)NC5=O)c(=O)c24)C3)cc(OC)c1CN(C)C` (stereo not drawn) [Compound D291], the 50% inhibitory concentration (IC50) lay in the range of 10 to 100 nM.

`COc1cc(-c2cn(C)c(=O)c3c2CCN(C(=O)NC2CC4(CCN(CCOc5ccc6c(c5)C(=O)N(C5CCC(=O)NC5=O)C6=O)C4)C2)C3)cc(OC)c1CN(C)C` (stereo not drawn) [Compound D228]: the concentration for half-maximal inhibition (IC50) is 10 to 100 nM.

`COc1cc(-c2cn(C)c(=O)c3c2CCN(C(=O)NCCCN2CCC4(C2)CN(c2ccc5c(c2)C(=O)N(C2CCC(=O)NC2=O)C5=O)C4)C3)cc(OC)c1CN(C)C` (stereo not drawn) [Compound D207]: the IC50 is 10 to 100 nM.

Compound `COc1cc(-c2cn(C)c(=O)c3c2CCN(C(=O)NC2CC4CC2CN4CCCCN2CCN(c4ccc5c(c4)C(=O)N(C4CCC(=O)NC4=O)C5=O)CC2)C3)cc(OC)c1CN(C)C` (stereo not drawn) [Compound D243] gave a half-inhibitory concentration (IC50) not below 1000 nM.

`COc1cc(-c2cn(C)c(=O)c3c2CCN(C(=O)NCC2CC24CCN(CCOc2ccc5c(c2)C(=O)N(C2CCC(=O)NC2=O)C5=O)CC4)C3)cc(OC)c1CN(C)C` (stereo not drawn) [Compound D269] registered a 50% inhibitory concentration (IC50) of 10 to 100 nM.

For the compound `COc1cc(-c2cn(C)c(=O)c3c2CCN(C(=O)NC2CC4(CCN(CCOc5ccc6c(c5)C(=O)N(C5CCC(=O)NC5=O)C6=O)CC4)C2)C3)cc(OC)c1CN(C)C` (stereo not drawn) [Compound D224], the IC50 was less than 10 nM.

Compound `CNC(=O)N1CCc2c(-c3cc(OC)c(CN4CCC(C(C)N5CCC6(CC5)CC(Oc5ccc7c(c5)C(=O)N(C5CCC(=O)NC5=O)C7=O)C6)CC4)c(OC)c3)cn(C)c(=O)c2C1` (stereo not drawn) [Compound D128] had an IC50 of less than 10 nM.

The compound `CNC(=O)N1CCc2c(-c3cc(OC)c(CN4CCC(CCN5CCN(c6ccn7c(=O)n(C8CCC(=O)NC8=O)nc7c6)CC5)CC4)c(OC)c3)cn(C)c(=O)c2C1` (stereo not drawn) [Compound D77] came in with an IC50 of 10 to 100 nM.

Still in this test, the particulars now being: SYO-1 cells, 6 hours, Table 6A.
In turn, `CNC(=O)N1CCc2c(-c3cc(OC)c(CN(C)CC(=O)NCCOCCOc4cccc5c4C(=O)N(C4CCC(=O)NC4=O)C5=O)c(OC)c3)cn(C)c(=O)c2C1` (stereo not drawn) [Compound D13, 5-(4-[[([[2-(2-[[2-(2,6-dioxopiperidin-3-yl)-1,3-dioxoisoindol-4-yl]oxy]ethoxy)ethyl]carbamoyl]methyl)(methyl)amino]methyl]-3,5-dimethoxyphenyl)-N,7-dimethyl-8-oxo-3,4-dihydro-1H-2,7-naphthyridine-2-carboxamide] had a 50% inhibitory concentration (IC50) of more than 1000 nM.

For the compound `COc1cc(-c2cn(C)c(=O)c3c2CCN(C(=O)NCCN(C)CCNC(=O)COc2cccc4c2C(=O)N(C2CCC(=O)NC2=O)C4=O)C3)cc(OC)c1CN(C)C` (stereo not drawn) [Compound D8, N-(2-[[2-(5-[4-[(dimethylamino)methyl]-3,5-dimethoxyphenyl]-7-methyl-8-oxo-3,4-dihydro-1H-2,7-naphthyridine-2-carbonylamino)ethyl](methyl)amino]ethyl)-2-[[2-(2,6-dioxopiperidin-3-yl)-1,3-dioxoisoindol-4-yl]oxy]acetamide formic acid], the IC50 is more than 100 nM.

As for `CNC(=O)N1CCc2c(-c3cc(OC)c(CN(C)C(=O)CCCCCOc4cccc5c4C(=O)N(C4CCC(=O)NC4=O)C5=O)c(OC)c3)cn(C)c(=O)c2C1` (stereo not drawn) [Compound D25, 5-[4-[(6-[[2-(2,6-dioxopiperidin-3-yl)-1,3-dioxoisoindol-4-yl]oxy]-N-methylhexanamido)methyl]-3,5-dimethoxyphenyl]-N,7-dimethyl-8-oxo-3,4-dihydro-1H-2,7-naphthyridine-2-carboxamide], the IC50 is less than 10 nM.

For the compound `CNC(=O)N1CCc2c(-c3cc(OC)c(CN4CCN(C(=O)COc5cccc6c5C(=O)N(C5CCC(=O)NC5=O)C6=O)CC4)c(OC)c3)cn(C)c(=O)c2C1` (stereo not drawn) [Compound D2, 5-(4-[[4-(2-[[2-(2,6-dioxopiperidin-3-yl)-1,3-dioxoisoindol-4-yl]oxy]acetyl)piperazin-1-yl]methyl]-3,5-dimethoxyphenyl)-N,7-dimethyl-8-oxo-3,4-dihydro-1H-2,7-naphthyridine-2-carboxamide], the half-maximal inhibitory concentration (IC50) is more than 10 nM.

The test is the same for the next values; noted with them: SYO-1 cells, 6 hours, Table 6C.
`COc1cc(-c2cn(C)c(=O)c3c2CCN(C(=O)NCC(F)F)C3)cc(OC)c1CN1CCN(CCC2CCN(c3ccc4c(c3)CN(C3CCC(=O)NC3=O)C4=O)CC2)CC12CCC2` (stereo not drawn) [Compound D322] returned an IC50 of less than 10 nM.

In turn, `COc1cc(-c2cn(C)c(=O)c3c2CCC3)cc(OC)c1CN1CCC2(CC1)CN(c1ccc3c(c1)C(=O)N(C1CCC(=O)NC1=O)C3)C2` (stereo not drawn) [Compound D356] gave a half-maximal inhibitory concentration (IC50) of less than 10 nM.

In turn, `COc1cc(-c2cn(C)c(=O)c3c2CCC3)cc(OC)c1CN1CCC2(CC1)CN(c1ccc3c(c1)C(=O)N(C1CCC(=O)NC1=O)C3=O)C2` (stereo not drawn) [Compound D363] gave an IC50 of less than 10 nM.

Turning to `COc1cc(-c2cn(C)c(=O)c3c2COC3)cc(OC)c1CN1CCN(c2ccc3c(c2)C(=O)N(C2CCC(=O)NC2=O)C3=O)CC1` (stereo not drawn) [Compound D373], the 50% inhibitory concentration (IC50) was less than 10 nM.

Regarding `COc1cc(-c2cn(C)c(=O)c3c2CCC(=O)N3)cc(OC)c1CN1CCC(CN2CCC3(CC2)CC(Oc2ccc4c(c2)CN(C2CCC(=O)NC2=O)C4=O)C3)CC1` (stereo not drawn) [Compound D354], the IC50 is less than 10 nM.

`[2H]C([2H])([2H])n1cc(-c2cc(OC)c(CN3[C@H](C)CN(CCC4CCN(c5ccc6c(c5)C(=O)N(C5CCC(=O)NC5=O)C6)CC4)C[C@H]3C)c(OC)c2)c2c(c1=O)CN(C(=O)NC)CC2` (stereo partly drawn) [Compound D319] showed an IC50 of less than 10 nM.

With `COc1cc(-c2cn(C)c(=O)c3c2CCC3)cc(OC)c1CN1CCC(CN2CCC3(CC2)CN(c2ccc4c(c2)C(=O)N(C2CCC(=O)NC2=O)C4)C3)CC1` (stereo not drawn) [Compound D353], the half-maximal inhibitory concentration (IC50) was less than 10 nM.

In turn, `[2H]C([2H])([2H])n1cc(-c2cc(OC)c(CN3CCN(CCC4CCN(c5ccc6c(c5)C(=O)N(C5CCC(=O)NC5=O)C6=O)CC4)CC3)c(OC)c2)c2c(c1=O)CN(C(=O)NCC(F)F)CC2` (stereo not drawn) [Compound D328] gave an IC50 not below 1000 nM.

Compound `COc1cc(-c2cn(C)c(=O)c3c2COC3)cc(OC)c1CN1CCC(CN2CCC3(CC2)CN(c2ccc4c(c2)C(=O)N(C2CCC(=O)NC2=O)C4)C3)CC1` (stereo not drawn) [Compound D372] came in with a 50% inhibitory concentration (IC50) of less than 10 nM.

Regarding `COc1cc(-c2cn(C)c(=O)c3c2CCC3)cc(OC)c1CN1CCC(C#Cc2ccc3c(c2)C(=O)N(C2CCC(=O)NC2=O)C3)CC1` (stereo not drawn) [Compound D371], the IC50 was less than 10 nM.

For `CNC(=O)N1CCc2c(-c3cc(OC)c(CN4CCC(CCN5C(C)CC(c6ccc7c(c6)C(=O)N(C6CCC(=O)NC6=O)C7=O)CC5C)CC4)c(OC)c3)cn(C)c(=O)c2C1` (stereo not drawn) [Compound D342], the half-maximal inhibitory concentration (IC50) is less than 10 nM.
